The NIST ThermoML archive (doi:10.1021/je060271a)
“And” between values parts separate entries of the source, which are not always exact repeats. Equal values may be shown once.

Conditions: Liquid, Vibrating tube method

CCCCC(=O)OCC(COC(=O)CCCC)(COC(=O)CCCC)COC(=O)CCCC [pentaerythritol tetrapentanoate]
Conditions | mass density
343.15 K, 33864 kPa | 1002.5 kg/m3
343.15 K, 33916 kPa | 1002.5 kg/m3
343.15 K, 33961 kPa | 1002.5 kg/m3
343.15 K, 34007 kPa | 1002.5 kg/m3
343.15 K, 34062 kPa | 1002.6 kg/m3
343.15 K, 34111 kPa | 1002.5 kg/m3
343.15 K, 34161 kPa | 1002.6 kg/m3
343.15 K, 34218 kPa | 1002.7 kg/m3
343.15 K, 34251 kPa | 1002.6 kg/m3
343.15 K, 34275 kPa | 1002.8 kg/m3
343.15 K, 34304 kPa | 1002.7 kg/m3
343.15 K, 34328 kPa | 1002.8 kg/m3
343.15 K, 34353 kPa | 1002.7 kg/m3
343.15 K, 34384 kPa | 1002.7 kg/m3
343.15 K, 34410 kPa | 1002.8 kg/m3
343.15 K, 34438 kPa | 1002.7 kg/m3
343.15 K, 34472 kPa | 1002.8 kg/m3
343.15 K, 34497 kPa | 1002.9 kg/m3
343.15 K, 34503 kPa | 1002.9 kg/m3
343.15 K, 34504 kPa | 1002.8 kg/m3
343.15 K, 34505 kPa | 1002.9 kg/m3
343.15 K, 34506 kPa | 1002.8 kg/m3
343.15 K, 34508 kPa | 1002.8 kg/m3
343.15 K, 34509 kPa | 1002.8 kg/m3
343.15 K, 34510 kPa | 1002.9 kg/m3 and 1002.8 kg/m3
343.15 K, 34512 kPa | 1002.8 kg/m3
343.15 K, 34514 kPa | 1002.8 kg/m3
343.16 K, 412.1 kPa | 978.6 kg/m3
343.16 K, 441.3 kPa | 978.8 kg/m3
343.16 K, 470.3 kPa | 978.8 kg/m3
343.16 K, 495.2 kPa | 978.9 kg/m3
343.16 K, 522.1 kPa | 978.8 kg/m3
343.16 K, 556.2 kPa | 979 kg/m3
343.16 K, 586.3 kPa | 978.8 kg/m3
343.16 K, 617.4 kPa | 979 kg/m3
343.16 K, 654 kPa | 979 kg/m3
343.16 K, 685.5 kPa | 979 kg/m3
343.16 K, 717.1 kPa | 979 kg/m3
343.16 K, 781.4 kPa | 979 kg/m3
343.16 K, 807.8 kPa | 979.1 kg/m3
343.16 K, 835.6 kPa | 979.2 kg/m3
343.16 K, 864.6 kPa | 979.2 kg/m3
343.16 K, 901.1 kPa | 979.2 kg/m3
343.16 K, 933.9 kPa | 979.2 kg/m3
343.16 K, 969.2 kPa | 979.2 kg/m3
343.16 K, 1013.1 kPa | 979.1 kg/m3
343.16 K, 1049.6 kPa | 979.2 kg/m3
343.16 K, 1077.9 kPa | 979.4 kg/m3
343.16 K, 1107.4 kPa | 979.3 kg/m3
343.16 K, 1133.1 kPa | 979.3 kg/m3
343.16 K, 1159.9 kPa | 979.4 kg/m3
343.16 K, 1187.6 kPa | 979.4 kg/m3
343.16 K, 1223.2 kPa | 979.4 kg/m3
343.16 K, 1254.5 kPa | 979.4 kg/m3
343.16 K, 1286.1 kPa | 979.4 kg/m3
343.16 K, 1325.9 kPa | 979.4 kg/m3
343.16 K, 1361.3 kPa | 979.5 kg/m3
343.16 K, 1398.1 kPa | 979.6 kg/m3
343.16 K, 1437 kPa | 979.8 kg/m3
343.16 K, 1485.1 kPa | 979.6 kg/m3
343.16 K, 1528.1 kPa | 979.7 kg/m3
343.16 K, 1574.3 kPa | 979.7 kg/m3
343.16 K, 1633.5 kPa | 979.6 kg/m3
343.16 K, 2223.1 kPa | 980.2 kg/m3
343.16 K, 2283.6 kPa | 980.2 kg/m3
343.16 K, 2321.1 kPa | 980.2 kg/m3
343.16 K, 2385.5 kPa | 980.4 kg/m3
343.16 K, 2425 kPa | 980.4 kg/m3
343.16 K, 2459.5 kPa | 980.4 kg/m3
343.16 K, 2536.9 kPa | 980.4 kg/m3
343.16 K, 2611.6 kPa | 980.6 kg/m3
343.16 K, 2873.3 kPa | 980.7 kg/m3
343.16 K, 2917.7 kPa | 980.7 kg/m3
343.16 K, 3019.5 kPa | 980.9 kg/m3
343.16 K, 3175.8 kPa | 980.9 kg/m3
343.16 K, 3224.4 kPa | 981.1 kg/m3
343.16 K, 3294.8 kPa | 981.1 kg/m3
343.16 K, 3352.1 kPa | 981.2 kg/m3
343.16 K, 3426.6 kPa | 981.2 kg/m3
343.16 K, 3497.5 kPa | 981.3 kg/m3
343.16 K, 3535.3 kPa | 981.2 kg/m3
343.16 K, 3629.9 kPa | 981.3 kg/m3
343.16 K, 3647.8 kPa | 981.5 kg/m3
343.16 K, 3662.8 kPa | 981.3 kg/m3
343.16 K, 3677.4 kPa | 981.3 kg/m3
343.16 K, 3695.4 kPa | 981.4 kg/m3
343.16 K, 3713.8 kPa | 981.4 kg/m3
343.16 K, 3733.2 kPa | 981.4 kg/m3
343.16 K, 3754.8 kPa | 981.5 kg/m3
343.16 K, 3785.2 kPa | 981.5 kg/m3
343.16 K, 3811.5 kPa | 981.5 kg/m3
343.16 K, 3838.2 kPa | 981.6 kg/m3
343.16 K, 3865.5 kPa | 981.5 kg/m3
343.16 K, 5098.9 kPa | 982.6 kg/m3
343.16 K, 5142.8 kPa | 982.5 kg/m3
343.16 K, 5167.8 kPa | 982.6 kg/m3
343.16 K, 5186.3 kPa | 982.5 kg/m3
343.16 K, 5201 kPa | 982.6 kg/m3
343.16 K, 5210.3 kPa | 982.5 kg/m3
343.16 K, 5224.5 kPa | 982.5 kg/m3
343.16 K, 5255.1 kPa | 982.6 kg/m3
343.16 K, 5300.5 kPa | 982.6 kg/m3
343.16 K, 5325.2 kPa | 982.7 kg/m3
343.16 K, 5345.4 kPa | 982.7 kg/m3
343.16 K, 5483.5 kPa | 982.9 kg/m3
343.16 K, 5624.6 kPa | 983 kg/m3
343.16 K, 5676.1 kPa | 983 kg/m3
343.16 K, 5700.4 kPa | 982.9 kg/m3
343.16 K, 5724.9 kPa | 982.9 kg/m3
343.16 K, 5754 kPa | 983 kg/m3
343.16 K, 5779.4 kPa | 983.1 kg/m3
343.16 K, 5804.5 kPa | 983.1 kg/m3
343.16 K, 5829.4 kPa | 982.9 kg/m3
343.16 K, 5859.3 kPa | 983 kg/m3
343.16 K, 5884.9 kPa | 983.1 kg/m3
343.16 K, 5910.4 kPa | 983.1 kg/m3
343.16 K, 5937.2 kPa | 983 kg/m3
343.16 K, 5968 kPa | 983.3 kg/m3
343.16 K, 5994 kPa | 983.1 kg/m3
343.16 K, 6020.7 kPa | 983.2 kg/m3
343.16 K, 6053.2 kPa | 983.2 kg/m3
343.16 K, 6080.4 kPa | 983.2 kg/m3
343.16 K, 6108.6 kPa | 983.3 kg/m3
343.16 K, 6137.6 kPa | 983.3 kg/m3
343.16 K, 6165.8 kPa | 983.2 kg/m3
343.16 K, 6199.5 kPa | 983.3 kg/m3
343.16 K, 6228 kPa | 983.4 kg/m3
343.16 K, 6262.9 kPa | 983.4 kg/m3
343.16 K, 6292.8 kPa | 983.4 kg/m3
343.16 K, 6323.1 kPa | 983.4 kg/m3
343.16 K, 6352.3 kPa | 983.4 kg/m3
343.16 K, 6382.9 kPa | 983.5 kg/m3
343.16 K, 6408.4 kPa | 983.5 kg/m3
343.16 K, 6433.7 kPa | 983.5 kg/m3
343.16 K, 6459.6 kPa | 983.5 kg/m3
343.16 K, 6491.2 kPa | 983.7 kg/m3
343.16 K, 6518.6 kPa | 983.6 kg/m3
343.16 K, 6545.1 kPa | 983.6 kg/m3
343.16 K, 6572.4 kPa | 983.7 kg/m3
343.16 K, 6599.5 kPa | 983.7 kg/m3
343.16 K, 6632.2 kPa | 983.7 kg/m3
343.16 K, 6659.3 kPa | 983.6 kg/m3
343.16 K, 6686.8 kPa | 983.6 kg/m3
343.16 K, 6719.6 kPa | 983.7 kg/m3
343.16 K, 6747.4 kPa | 983.8 kg/m3
343.16 K, 6804.2 kPa | 983.8 kg/m3
343.16 K, 6838.6 kPa | 983.8 kg/m3
343.16 K, 6899.2 kPa | 983.8 kg/m3
343.16 K, 6929.1 kPa | 983.9 kg/m3
343.16 K, 6959.5 kPa | 983.9 kg/m3
343.16 K, 6989.5 kPa | 984 kg/m3
343.16 K, 7026.2 kPa | 983.9 kg/m3
343.16 K, 7056.7 kPa | 984 kg/m3
343.16 K, 7088 kPa | 984.1 kg/m3
343.16 K, 7120.1 kPa | 984.1 kg/m3
343.16 K, 7261.4 kPa | 984.1 kg/m3
343.16 K, 7294.7 kPa | 984.3 kg/m3
343.16 K, 7328.4 kPa | 984.1 kg/m3
343.16 K, 7396.9 kPa | 984.2 kg/m3
343.16 K, 7437.8 kPa | 984.2 kg/m3
343.16 K, 7472.9 kPa | 984.3 kg/m3
